Measurements published in PMC12325182, “Discovery of novel and potent celastrol derivatives as PRDX1 inhibitors for cancer therapy through structure-based virtual screening” (Frontiers in Pharmacology, 2025).

How the values were obtained:
Assay in all cases: MTT assay
Format in all cases: cell-based
[1] = system: BEAS-2B normal lung cells; settings: Homo sapiens, MTT, 72 h, normal lung cells, mean ± SD, n = 3, read-out: IC50 (μM) BEAS-2B
Method: (§1) Cells were seeded in 96-well plates at 5 ×10^4 cells/well and cultured overnight at 37°C under 5% CO2. After medium removal, cells were treated with serially diluted compounds (0.04–163.84 μM) or vehicle control (0.1% DMSO) and incubated for 72 h. Subsequently, 20 μL of MTT solution (5 mg/mL) was added to each well, and incubation was continued for 4 h. Add 150 μL of DMSO and shake for 10 min to fully dissolve the crystal. Finally, the absorbance was measured at 570 nm using a microplate reader. Cell viability was calculated as (ODcompound - ODblank)/(ODvehicle - ODblank) × 100%. The half inhibitory concentration (IC50) was calculated from the dose-response curve using Prism 8.0 software. Three independent replicate experiments were performed.

A549 lung cancer cells = system: A549 lung cancer cells
Method: as §1

[2] = system: MCF-7 (breast adenocarcinoma cells); settings: Homo sapiens, MCF7; MTT, 72 h; mean ± SD, n = 3; read-out: IC50 (μM) MCF-7
Method: as §1

[3] = system: HEK293 (embryonic kidney cells); settings: Homo sapiens, HEK293; MTT, 72 h; normal cells; mean ± SD, n = 3; read-out: IC50 (μM) HEK293
Method: as §1

LO2 (normal liver cells) = settings: Homo sapiens; MTT, 72 h; normal cells; mean ± SD, n = 3; read-out: IC50 (μM) LO2
Method: as §1

**Q.** With CC1=C(CC(=O)/C=C/c2cccc(CO)c2)C(=O)C=C2C1=CC=C1[C@@]2(C)CC[C@@]2(C)C3C[C@](C)(C(=O)CCc4nc(C(O)C(O)O)c(C)nc4C)CC[C@]3(C)CC[C@]12C (stereo partly drawn) [CP1] as the molecule, how does the IC50 [1] read?
**A.** > 100 µM

**Q.** What about the IC50 (A549 lung cancer cells; Homo sapiens, A549, MTT, 72 h, mean ± SD, n = 3, read-out: IC50 (μM) A549) of the same molecule?
**A.** 0.22 ± 0.01 µM

**Q.** And the “improvement of antiproliferative activity against A549 cells compared to celastrol” value (A549 lung cancer cells; ratio of IC50 values)?
**A.** approximately 5 fold

**Q.** What about the IC50 [2] of the same molecule?
**A.** 0.27 ± 0.01 µM

**Q.** And the IC50 [3]?
**A.** > 100 µM

**Q.** What about the IC50 (LO2 (normal liver cells)) of the same molecule?
**A.** > 100 µM
